Values quoted from earlier work, collected in patent publication US20170189347A1, “TRANSDERMAL DELIVERY SYSTEM” (priority 2014, published 2017).

How the values were obtained:
[1] = not given; remark: listed apart in the source
MAO-B = MAO-B (Homo sapiens, UniProt P27338); settings: in humans
MAO-A = MAO-A (Homo sapiens, UniProt P21397); settings: in humans
MAO-A, sequence (P21397 whole entry): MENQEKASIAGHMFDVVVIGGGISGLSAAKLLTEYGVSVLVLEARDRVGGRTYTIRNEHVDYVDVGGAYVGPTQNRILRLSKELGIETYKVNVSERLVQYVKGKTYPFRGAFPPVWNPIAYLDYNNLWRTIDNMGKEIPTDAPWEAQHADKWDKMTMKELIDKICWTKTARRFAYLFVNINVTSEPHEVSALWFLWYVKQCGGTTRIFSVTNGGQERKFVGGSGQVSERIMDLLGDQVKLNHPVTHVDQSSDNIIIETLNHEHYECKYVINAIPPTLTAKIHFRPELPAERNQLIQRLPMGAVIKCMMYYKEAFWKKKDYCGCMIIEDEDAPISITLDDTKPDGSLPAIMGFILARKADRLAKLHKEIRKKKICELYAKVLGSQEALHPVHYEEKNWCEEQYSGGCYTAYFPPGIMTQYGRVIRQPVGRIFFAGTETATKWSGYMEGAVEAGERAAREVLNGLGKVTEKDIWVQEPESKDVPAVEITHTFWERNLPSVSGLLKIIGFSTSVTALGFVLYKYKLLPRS

MAO-B, sequence (P27338 whole entry): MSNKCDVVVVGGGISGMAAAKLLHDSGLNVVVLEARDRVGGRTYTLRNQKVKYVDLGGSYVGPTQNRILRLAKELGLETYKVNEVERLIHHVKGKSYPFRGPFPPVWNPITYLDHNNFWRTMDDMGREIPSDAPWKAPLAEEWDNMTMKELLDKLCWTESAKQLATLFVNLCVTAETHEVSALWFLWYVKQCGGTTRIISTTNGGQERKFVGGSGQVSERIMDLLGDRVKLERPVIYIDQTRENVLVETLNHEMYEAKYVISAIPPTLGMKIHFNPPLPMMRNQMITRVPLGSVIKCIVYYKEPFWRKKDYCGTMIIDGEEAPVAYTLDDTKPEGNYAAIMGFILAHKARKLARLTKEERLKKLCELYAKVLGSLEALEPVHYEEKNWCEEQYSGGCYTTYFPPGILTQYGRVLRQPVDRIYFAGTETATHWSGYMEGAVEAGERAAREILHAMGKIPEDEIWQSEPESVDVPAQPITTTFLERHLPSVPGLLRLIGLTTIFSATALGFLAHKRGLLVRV

SMILES: C#CCN[C@@H]1CCc2ccccc21 [rasagiline, (1R)-N-(prop-2-yn-1-yl)-2,3-dihydro-1H-inden-1-amine]
- solubility in water: 0.025 grams of drug per liter of water
- solubility in non-crosslinked acrylic copolymer PSA DT 87-4098 ([1]; DT 87-4098): 54 wt %
- solubility in non-crosslinked acrylic copolymer PSA DT 87-9088 ([1]; DT 87-9088): 111 wt %
- solubility in non-crosslinked acrylic copolymer PSA DT 87-9301 ([1]; DT 87-9301): 78 wt %
- solubility in polyisobutylene (PIB) PSA ([1]; PIB): about 8 wt %
- solubility in silicone PSA ([1]; silicone PSA): ~6 wt %
- inhibition of MAO-B (MAO-B): selectively inhibit MAO-B
- inhibition of MAO-A (MAO-A): not to inhibit MAO-A

SMILES: C#CCN(C)[C@H](C)Cc1ccccc1 [selegiline]
- solubility in water: 0.025 grams of drug per liter of water
